These results are taken from PubChem BioAssay (NCI).

Values joined by “and” are separate entries in the source; they are usually repeats but may differ in a detail not shown here. Identical values can stand only once.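 A five-concentration, 48-hour dose response in 96-well plates underlies each endpoint, interpolated linearly between surrounding concentrations. The concentration for 50% growth inhibition is given as GI50. TGI is the concentration that stops growth completely.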

Among the test systems are A498 renal; HOP-92 NSCLC; SF-295 CNS; K-562 leukemia; NCI-H23 lung; LOX IMVI melanoma; HCT-116 colon; MOLT-4 leukemia; SF-268 CNS; NCI-H226 lung.
Assay in all cases: NCI anticancer screen, dose series, 48 h

In the case of `CCCCON(OC(=O)c1ccccc1)C(=O)c1ccccc1`, the GI50 in the assay on A498 renal was > 100000 nM; with HOP-92 NSCLC, > 100000 nM; with SF-295 CNS it was > 100000 nM; in the assay on K-562 leukemia, 93400 nM; in the assay on NCI-H23 lung, > 100 µM; in the assay on LOX IMVI melanoma, > 100000 nM. Also, the GI50 is > 100000 nM in the assay with HCT-116 colon, 53.1 µM in the assay on MOLT-4 leukemia, > 100 µM in the assay on SF-268 CNS and > 100 µM in the assay with NCI-H226 lung. Also, the TGI in the assay on A498 renal, with HOP-92 NSCLC, with SF-295 CNS, in the assay with K-562 leukemia, in the assay with NCI-H23 lung and in the assay with LOX IMVI melanoma was > 100 µM in each case. For the same compound, the TGI with HCT-116 colon, in the assay on MOLT-4 leukemia, with SF-268 CNS and with NCI-H226 lung was > 100 µM each time.

In the case of `O=C1c2ccccc2-c2c1c1ccccc1c(=O)n2CCCCNCCCn1c2c(c3ccccc3c1=O)C(=O)c1ccccc1-2`, the GI50 with A498 renal is 1490 nM; with HOP-92 NSCLC it was 994 nM; in the assay with SF-295 CNS it was 270 nM; with K-562 leukemia it was 205 nM; with NCI-H23 lung, 0.461 µM; with LOX IMVI melanoma, 49.9 nM. Further, the GI50 in the assay with HCT-116 colon was 9.48 nM; in the assay with MOLT-4 leukemia, 0.016 µM; with SF-268 CNS, 0.358 µM; with NCI-H226 lung it was 0.375 µM. The TGI with A498 renal came out at 5.64 µM; in the assay with HOP-92 NSCLC it was 3.45 µM; in the assay with SF-295 CNS, 2.33 µM; in the assay on K-562 leukemia, 9.62 µM; in the assay on NCI-H23 lung, 2.53 µM; in the assay on LOX IMVI melanoma, 0.76 µM. The TGI was found to be 0.688 µM in the assay on HCT-116 colon, 0.452 µM with MOLT-4 leukemia, 6.93 µM with SF-268 CNS and 3.11 µM with NCI-H226 lung.

With `COc1cc(C(=O)/C=C/c2c(C)n([O-])c3ccc(C)cc3[n+]2=O)cc(OC)c1OC`, the GI50 in the assay with A498 renal was 14500 nM; in the assay on HOP-92 NSCLC it was 5560 nM; in the assay with SF-295 CNS, 22800 nM; with K-562 leukemia, 2800 nM; with NCI-H23 lung, 10.4 µM; in the assay with LOX IMVI melanoma, 2110 nM. In addition, the GI50 in the assay on HCT-116 colon is 1540 nM; in the assay on MOLT-4 leukemia, 3.57 µM; with SF-268 CNS, 12.3 µM; in the assay with NCI-H226 lung, 30.6 µM. The TGI in the assay with A498 renal is 38.6 µM; in the assay on HOP-92 NSCLC it was > 27.1 µM; with SF-295 CNS it was > 68 µM; in the assay on K-562 leukemia, > 24.7 µM; in the assay on NCI-H23 lung, 26.4 µM; in the assay with LOX IMVI melanoma, 5.91 µM. The TGI in the assay on HCT-116 colon was 2.95 µM; in the assay on MOLT-4 leukemia it was > 29.8 µM; in the assay with SF-268 CNS it was 29.5 µM; with NCI-H226 lung, > 100 µM.

For the compound `N#Cc1c(-c2ccccc2)nc(SCC2CO2)nc1N1CCOCC1` (centres undefined), the GI50 with A498 renal is 1260 nM; with HOP-92 NSCLC, 284 nM; in the assay on SF-295 CNS, 2670 nM; in the assay with K-562 leukemia it was > 47200 nM; in the assay on NCI-H23 lung, 8.51 µM; with LOX IMVI melanoma, 9490 nM. Further, the GI50 in the assay on HCT-116 colon is 20500 nM; in the assay on MOLT-4 leukemia, 10.1 µM; in the assay on SF-268 CNS, 13.1 µM; in the assay on NCI-H226 lung it was 11.5 µM. Also, the TGI was 5.42 µM with A498 renal; 1.22 µM with HOP-92 NSCLC; 28.2 µM in the assay with SF-295 CNS; > 100 µM in the assay on K-562 leukemia; > 100 µM with NCI-H23 lung; > 100 µM in the assay with LOX IMVI melanoma. The TGI with HCT-116 colon is > 100 µM; in the assay with MOLT-4 leukemia, > 74.6 µM; in the assay with SF-268 CNS, > 100 µM; with NCI-H226 lung it was > 100 µM.

On to `CN(C)CCOc1ccc(-c2nc(-c3ccc4c(c3)CC/C4=N\O)c(-c3ccncc3)[nH]2)cc1`, for which the GI50 in the assay with A498 renal was 4680 nM and 8840 nM; in the assay with HOP-92 NSCLC it was 710 nM and 1150 nM; with SF-295 CNS it was 4600 nM and 8820 nM; in the assay with K-562 leukemia, 4740 nM and 1950 nM; in the assay with NCI-H23 lung, 3.23 µM and 3.98 µM; with LOX IMVI melanoma, 934 nM and 1510 nM. Also, the GI50 was 3290 nM and 1840 nM with HCT-116 colon; 5.74 µM and 3.53 µM with MOLT-4 leukemia; 4.38 µM and 7.26 µM with SF-268 CNS; 4.72 µM and 8.03 µM in the assay with NCI-H226 lung. Moreover, the TGI was 9.57 µM and 27.2 µM with A498 renal; 4.29 µM and 24.1 µM with HOP-92 NSCLC; 9.42 µM and 21.4 µM in the assay with SF-295 CNS; 10.5 µM and 4.2 µM in the assay on K-562 leukemia; 7.85 µM and 25.7 µM in the assay on NCI-H23 lung; 6.46 µM in the assay on LOX IMVI melanoma. Moreover, the TGI with HCT-116 colon is 7.8 µM and 6.72 µM; with MOLT-4 leukemia, 12.2 µM and 25.7 µM; in the assay on SF-268 CNS, 9.05 µM and 15.4 µM; in the assay on NCI-H226 lung, 9.77 µM and 17.1 µM.

In the case of `COc1ccc2[nH]c(=O)c3c4ccccc4cn3c2c1`, the GI50 in the assay on A498 renal is 383 nM; with HOP-92 NSCLC, 2000 nM; in the assay on SF-295 CNS it was 393 nM; in the assay with K-562 leukemia, 276 nM; with NCI-H23 lung it was 0.639 µM; in the assay with LOX IMVI melanoma, 776 nM. Further, the GI50 was 351 nM with HCT-116 colon, 0.399 µM in the assay with MOLT-4 leukemia, 0.516 µM in the assay with SF-268 CNS and 3.47 µM in the assay on NCI-H226 lung. Further, the TGI amounted to 4.83 µM with A498 renal; 8.37 µM in the assay with HOP-92 NSCLC; 1.71 µM with SF-295 CNS; 1.33 µM with K-562 leukemia; 6.59 µM in the assay on NCI-H23 lung; 2.11 µM in the assay with LOX IMVI melanoma. Moreover, the TGI in the assay on HCT-116 colon turned out to be 1.38 µM; with MOLT-4 leukemia it was 2.23 µM; with SF-268 CNS, 3.19 µM; in the assay on NCI-H226 lung, 18 µM.

In the case of `Cc1cc2nc(C(C)C(=O)c3ccc(Cl)cc3)c(=O)[nH]c2cc1C` (centres undefined), the TGI in the assay with A498 renal, with HOP-92 NSCLC, in the assay on SF-295 CNS, in the assay on K-562 leukemia, in the assay on NCI-H23 lung and with LOX IMVI melanoma was > 100 µM throughout. For the same compound, the TGI in the assay with HCT-116 colon was > 100 µM; in the assay with MOLT-4 leukemia, > 100 µM; in the assay on SF-268 CNS, > 100 µM; in the assay on NCI-H226 lung, 95.1 µM.

`CC(=O)NCCc1c2c(c3nccc4c3c1Nc1ccccc1-4)OCS2`: the GI50 in the assay on A498 renal is 698 nM; in the assay on HOP-92 NSCLC it was 2020 nM; with SF-295 CNS, 1870 nM; in the assay on K-562 leukemia it was 2930 nM; with NCI-H23 lung, 1.52 µM; in the assay on LOX IMVI melanoma, 1260 nM. In addition, the GI50 is 2220 nM with HCT-116 colon, 2.38 µM in the assay with MOLT-4 leukemia, 1.56 µM in the assay with SF-268 CNS and 11.6 µM with NCI-H226 lung. The TGI in the assay on A498 renal was 19.1 µM; in the assay on HOP-92 NSCLC it was 21 µM; in the assay on SF-295 CNS it was 15.1 µM; in the assay with K-562 leukemia it was 56.2 µM; in the assay on NCI-H23 lung, 12.3 µM; in the assay on LOX IMVI melanoma it was 3.85 µM. Further, the TGI in the assay with MOLT-4 leukemia is > 100 µM; with SF-268 CNS, 11.4 µM; in the assay with NCI-H226 lung, 26.5 µM.
